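Compound exposure: 48 hours, 5 concentrations, 96-well plates. Definition used: TGI = concentration required for complete inhibition of growth.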
Test system: DMS 114 small cell lung
Assay: DTP human tumour cell line panel, 48 h

Which TGI does the source give for O=C1c2ccccc2C(=O)N1C/C=N/NS(=O)(=O)c1ccc(F)cc1 here?
Its TGI is > 100 µM.

c1ccc2c(c1)c1ccccc1c1n[se]nc21 was tested. Which TGI did it give?
The TGI was > 100 µM.

For O=C(c1ccc(Cl)cc1Cl)N(/N=C/C=C/c1ccccc1)c1nnc(-c2ccccc2)c(-c2ccccc2)n1, which TGI is on record?
Its TGI is > 100 µM.

Cn1c2c([N+](=O)[O-])cccc2c(=O)c2c(O)cc3c(c21)C=CC(C)(C)O3 was tested. Which TGI did it give?
Its TGI is > 100 µM.

With COc1ccc([C@@H]2C[C@@H]3C(=O)OC(=O)[C@@H]3c3c2c2ccccc2n3C)cc1 as the compound, how does the TGI read?
The TGI was > 100 µM.

Test system: A498 renal
Assay: DTP human tumour cell line panel, 48 h

How did the TGI turn out when c1ccc2c(c1)c1ccccc1c1n[se]nc21 was run?
Its TGI is 67.1 µM.

For O=C(c1ccc(Cl)cc1Cl)N(/N=C/C=C/c1ccccc1)c1nnc(-c2ccccc2)c(-c2ccccc2)n1, which TGI is on record?
The TGI was > 100 µM.

How did the TGI turn out when Cn1c2c([N+](=O)[O-])cccc2c(=O)c2c(O)cc3c(c21)C=CC(C)(C)O3 was run?
Its TGI is > 100 µM.

How did the TGI turn out when COc1ccc([C@@H]2C[C@@H]3C(=O)OC(=O)[C@@H]3c3c2c2ccccc2n3C)cc1 was run?
Its TGI is > 100 µM.

Test system: EKVX NSCLC
Assay: DTP human tumour cell line panel, 48 h

For O=C1c2ccccc2C(=O)N1C/C=N/NS(=O)(=O)c1ccc(F)cc1, which TGI is on record?
Its TGI is > 100 µM.

Which TGI does the source give for c1ccc2c(c1)c1ccccc1c1n[se]nc21 here?
Its TGI is > 100 µM.

For O=C(c1ccc(Cl)cc1Cl)N(/N=C/C=C/c1ccccc1)c1nnc(-c2ccccc2)c(-c2ccccc2)n1, which TGI is on record?
Its TGI is > 100 µM.

With Cn1c2c([N+](=O)[O-])cccc2c(=O)c2c(O)cc3c(c21)C=CC(C)(C)O3 as the compound, how does the TGI read?
Its TGI is > 100 µM.

COc1ccc([C@@H]2C[C@@H]3C(=O)OC(=O)[C@@H]3c3c2c2ccccc2n3C)cc1 was tested. Which TGI did it give?
The TGI was > 100 µM.

Test system: SNB-75 CNS
Assay: DTP human tumour cell line panel, 48 h

For O=C1c2ccccc2C(=O)N1C/C=N/NS(=O)(=O)c1ccc(F)cc1, which TGI is on record?
The TGI was > 100 µM.

How did the TGI turn out when c1ccc2c(c1)c1ccccc1c1n[se]nc21 was run?
The TGI was 59 µM.

For O=C(c1ccc(Cl)cc1Cl)N(/N=C/C=C/c1ccccc1)c1nnc(-c2ccccc2)c(-c2ccccc2)n1, which TGI is on record?
The TGI was > 100 µM.

Which TGI does the source give for Cn1c2c([N+](=O)[O-])cccc2c(=O)c2c(O)cc3c(c21)C=CC(C)(C)O3 here?
Its TGI is 84.5 µM.

With COc1ccc([C@@H]2C[C@@H]3C(=O)OC(=O)[C@@H]3c3c2c2ccccc2n3C)cc1 as the compound, how does the TGI read?
Its TGI is > 100 µM.

Test system: M14 melanoma
Assay: DTP human tumour cell line panel, 48 h

How did the TGI turn out when c1ccc2c(c1)c1ccccc1c1n[se]nc21 was run?
Its TGI is > 100 µM.

How did the TGI turn out when Cn1c2c([N+](=O)[O-])cccc2c(=O)c2c(O)cc3c(c21)C=CC(C)(C)O3 was run?
The TGI was > 100 µM.

Which TGI does the source give for COc1ccc([C@@H]2C[C@@H]3C(=O)OC(=O)[C@@H]3c3c2c2ccccc2n3C)cc1 here?
Its TGI is > 100 µM.

Test system: HOP-92 NSCLC
Assay: DTP human tumour cell line panel, 48 h

COc1ccc([C@@H]2C[C@@H]3C(=O)OC(=O)[C@@H]3c3c2c2ccccc2n3C)cc1 was tested. Which TGI did it give?
The TGI was > 100 µM.

Test system: HCC-2998 colon
Assay: DTP human tumour cell line panel, 48 h

For O=C1c2ccccc2C(=O)N1C/C=N/NS(=O)(=O)c1ccc(F)cc1, which TGI is on record?
The TGI was > 100 µM.

How did the TGI turn out when O=C(c1ccc(Cl)cc1Cl)N(/N=C/C=C/c1ccccc1)c1nnc(-c2ccccc2)c(-c2ccccc2)n1 was run?
Its TGI is > 100 µM.

For Cn1c2c([N+](=O)[O-])cccc2c(=O)c2c(O)cc3c(c21)C=CC(C)(C)O3, which TGI is on record?
Its TGI is > 100 µM.

How did the TGI turn out when COc1ccc([C@@H]2C[C@@H]3C(=O)OC(=O)[C@@H]3c3c2c2ccccc2n3C)cc1 was run?
The TGI was > 100 µM.

Test system: NCI-H522 lung
Assay: DTP human tumour cell line panel, 48 h

With O=C1c2ccccc2C(=O)N1C/C=N/NS(=O)(=O)c1ccc(F)cc1 as the compound, how does the TGI read?
The TGI was > 100 µM.

With c1ccc2c(c1)c1ccccc1c1n[se]nc21 as the compound, how does the TGI read?
The TGI was > 100 µM.

For O=C(c1ccc(Cl)cc1Cl)N(/N=C/C=C/c1ccccc1)c1nnc(-c2ccccc2)c(-c2ccccc2)n1, which TGI is on record?
Its TGI is 82.5 µM.

How did the TGI turn out when Cn1c2c([N+](=O)[O-])cccc2c(=O)c2c(O)cc3c(c21)C=CC(C)(C)O3 was run?
The TGI was 27.8 µM.

For COc1ccc([C@@H]2C[C@@H]3C(=O)OC(=O)[C@@H]3c3c2c2ccccc2n3C)cc1, which TGI is on record?
Its TGI is > 100 µM.

Test system: HT29 colon
Assay: DTP human tumour cell line panel, 48 h

c1ccc2c(c1)c1ccccc1c1n[se]nc21 was tested. Which TGI did it give?
The TGI was > 100 µM.

With O=C(c1ccc(Cl)cc1Cl)N(/N=C/C=C/c1ccccc1)c1nnc(-c2ccccc2)c(-c2ccccc2)n1 as the compound, how does the TGI read?
The TGI was > 100 µM.

Cn1c2c([N+](=O)[O-])cccc2c(=O)c2c(O)cc3c(c21)C=CC(C)(C)O3 was tested. Which TGI did it give?
Its TGI is > 100 µM.

COc1ccc([C@@H]2C[C@@H]3C(=O)OC(=O)[C@@H]3c3c2c2ccccc2n3C)cc1 was tested. Which TGI did it give?
The TGI was > 100 µM.

Test system: SR leukemia
Assay: DTP human tumour cell line panel, 48 h

Which TGI does the source give for O=C1c2ccccc2C(=O)N1C/C=N/NS(=O)(=O)c1ccc(F)cc1 here?
Its TGI is > 100 µM.

How did the TGI turn out when COc1ccc([C@@H]2C[C@@H]3C(=O)OC(=O)[C@@H]3c3c2c2ccccc2n3C)cc1 was run?
Its TGI is > 100 µM.

Test system: CCRF-CEM leukemia
Assay: DTP human tumour cell line panel, 48 h

With O=C1c2ccccc2C(=O)N1C/C=N/NS(=O)(=O)c1ccc(F)cc1 as the compound, how does the TGI read?
Its TGI is > 100 µM.

c1ccc2c(c1)c1ccccc1c1n[se]nc21 was tested. Which TGI did it give?
The TGI was > 100 µM.

O=C(c1ccc(Cl)cc1Cl)N(/N=C/C=C/c1ccccc1)c1nnc(-c2ccccc2)c(-c2ccccc2)n1 was tested. Which TGI did it give?
The TGI was > 100 µM.

Which TGI does the source give for Cn1c2c([N+](=O)[O-])cccc2c(=O)c2c(O)cc3c(c21)C=CC(C)(C)O3 here?
Its TGI is > 100 µM.

With COc1ccc([C@@H]2C[C@@H]3C(=O)OC(=O)[C@@H]3c3c2c2ccccc2n3C)cc1 as the compound, how does the TGI read?
Its TGI is > 100 µM.

Test system: DLD-1 colon
Assay: DTP human tumour cell line panel, 48 h

With O=C1c2ccccc2C(=O)N1C/C=N/NS(=O)(=O)c1ccc(F)cc1 as the compound, how does the TGI read?
Its TGI is > 100 µM.

How did the TGI turn out when c1ccc2c(c1)c1ccccc1c1n[se]nc21 was run?
The TGI was > 100 µM.

O=C(c1ccc(Cl)cc1Cl)N(/N=C/C=C/c1ccccc1)c1nnc(-c2ccccc2)c(-c2ccccc2)n1 was tested. Which TGI did it give?
Its TGI is > 100 µM.

For Cn1c2c([N+](=O)[O-])cccc2c(=O)c2c(O)cc3c(c21)C=CC(C)(C)O3, which TGI is on record?
The TGI was > 100 µM.

How did the TGI turn out when COc1ccc([C@@H]2C[C@@H]3C(=O)OC(=O)[C@@H]3c3c2c2ccccc2n3C)cc1 was run?
Its TGI is > 100 µM.

Test system: U251 CNS
Assay: DTP human tumour cell line panel, 48 h

For O=C1c2ccccc2C(=O)N1C/C=N/NS(=O)(=O)c1ccc(F)cc1, which TGI is on record?
The TGI was > 100 µM.

c1ccc2c(c1)c1ccccc1c1n[se]nc21 was tested. Which TGI did it give?
The TGI was > 100 µM.

O=C(c1ccc(Cl)cc1Cl)N(/N=C/C=C/c1ccccc1)c1nnc(-c2ccccc2)c(-c2ccccc2)n1 was tested. Which TGI did it give?
Its TGI is > 100 µM.

With Cn1c2c([N+](=O)[O-])cccc2c(=O)c2c(O)cc3c(c21)C=CC(C)(C)O3 as the compound, how does the TGI read?
The TGI was > 100 µM.

Test system: SNB-78 CNS
Assay: DTP human tumour cell line panel, 48 h

With c1ccc2c(c1)c1ccccc1c1n[se]nc21 as the compound, how does the TGI read?
The TGI was > 100 µM.

Which TGI does the source give for O=C(c1ccc(Cl)cc1Cl)N(/N=C/C=C/c1ccccc1)c1nnc(-c2ccccc2)c(-c2ccccc2)n1 here?
The TGI was > 100 µM.

Cn1c2c([N+](=O)[O-])cccc2c(=O)c2c(O)cc3c(c21)C=CC(C)(C)O3 was tested. Which TGI did it give?
Its TGI is > 100 µM.

Test system: M19-MEL melanoma
Assay: DTP human tumour cell line panel, 48 h

O=C1c2ccccc2C(=O)N1C/C=N/NS(=O)(=O)c1ccc(F)cc1 was tested. Which TGI did it give?
Its TGI is > 100 µM.

With O=C(c1ccc(Cl)cc1Cl)N(/N=C/C=C/c1ccccc1)c1nnc(-c2ccccc2)c(-c2ccccc2)n1 as the compound, how does the TGI read?
Its TGI is > 100 µM.

Which TGI does the source give for COc1ccc([C@@H]2C[C@@H]3C(=O)OC(=O)[C@@H]3c3c2c2ccccc2n3C)cc1 here?
The TGI was > 100 µM.

Test system: A549 NSCLC
Assay: DTP human tumour cell line panel, 48 h

For O=C1c2ccccc2C(=O)N1C/C=N/NS(=O)(=O)c1ccc(F)cc1, which TGI is on record?
Its TGI is > 100 µM.

Which TGI does the source give for c1ccc2c(c1)c1ccccc1c1n[se]nc21 here?
Its TGI is > 100 µM.

With O=C(c1ccc(Cl)cc1Cl)N(/N=C/C=C/c1ccccc1)c1nnc(-c2ccccc2)c(-c2ccccc2)n1 as the compound, how does the TGI read?
Its TGI is > 100 µM.

Source: PubChem BioAssay (NCI)
